# How the values were obtained:
# Type in all cases: functional
# Shigella flexneri [1] = assay: Antimicrobial activity against Shigella flexneri MTCC 1457
# Shigella flexneri [2] = assay: Antimicrobial activity against Shigella flexneri MTCC 1457 at 100 ug/ml after 24 hrs by agar disc diffusion method; conditions: MTCC 1457, 24 h, read-out: DIZ
# [3] = system: Radical scavenging activity; assay: Antioxidant activity assessed as DPPH free radical scavenging activity at 10 ug/ml after 20 mins
# Aspergillus niger [4] = assay: Antimicrobial activity against Aspergillus niger MTCC 281 at 50 ug/ml after 24 hrs by agar disc diffusion method; conditions: MTCC 281, 24 h, read-out: DIZ
# Escherichia coli [5] = assay: Antimicrobial activity against Escherichia coli MTCC 724
# [6] = Antiinflammatory activity against heat-induced albumin denaturation at […] preincubated for 15 mins before heat induction by UV-vis spectrophotometer analysis
# [7] = Antioxidant activity assessed as reducing power of ferric ion at 50 ug/ml after 20 mins; design: scale not given: the % may be the effect or the level left
# Aspergillus flavus [8] = assay: Antimicrobial activity against Aspergillus flavus MTCC 873
# Bacillus cereus [9] = assay: Antimicrobial activity against Bacillus cereus MTCC 8372
# [10] = Antioxidant activity against ferric chloride-induced lipid peroxidation using egg lecithin at 0.01 ug/ml after 1 hr
# [11] = Antioxidant activity against ferric chloride-induced lipid peroxidation using egg lecithin at 0.5 ug/ml after 1 hr
# Escherichia coli [12] = assay: Antimicrobial activity against Escherichia coli MTCC 724 at 50 ug/ml after 24 hrs by agar disc diffusion method; conditions: MTCC 724, 24 h, read-out: DIZ
# [13] = Antioxidant activity against ferric chloride-induced lipid peroxidation using egg lecithin at 0.05 ug/ml after 1 hr
# Aspergillus flavus [14] = assay: Antimicrobial activity against Aspergillus flavus MTCC 873 at 50 ug/ml after 24 hrs by agar disc diffusion method; conditions: MTCC 873, 24 h, read-out: DIZ
# Klebsiella pneumoniae [15] = assay: Antimicrobial activity against Klebsiella pneumoniae MTCC 3384 at 100 ug/ml after 24 hrs by agar disc diffusion method; conditions: MTCC 3384, 24 h, read-out: DIZ
# [16] = Antioxidant activity against ferric chloride-induced lipid peroxidation using egg lecithin at 0.25 ug/ml after 1 hr
# [17] = system: Radical scavenging activity; assay: Antioxidant activity assessed as DPPH free radical scavenging activity at 50 ug/ml after 20 mins
# [18] = Antioxidant activity against ferric chloride-induced lipid peroxidation using egg lecithin at 0.1 ug/ml after 1 hr
# [19] = Antioxidant activity against ferric chloride-induced lipid peroxidation using egg lecithin at 1 ug/ml after 1 hr
# [20] = Antioxidant activity against ferric chloride-induced lipid peroxidation using egg lecithin at 50 ug/ml after 1 hr
# [21] = system: Radical scavenging activity; assay: Antioxidant activity assessed as DPPH free radical scavenging activity at 100 ug/ml after 20 mins
# Bacillus cereus [22] = assay: Antimicrobial activity against Bacillus cereus MTCC 8372 at 100 ug/ml after 24 hrs by agar disc diffusion method; conditions: MTCC 8372, 24 h, read-out: DIZ
# Staphylococcus aureus [23] = assay: Antimicrobial activity against Staphylococcus aureus MTCC 96 at 50 ug/ml after 24 hrs by agar disc diffusion method; conditions: MTCC 96, 24 h, read-out: DIZ
# Klebsiella pneumoniae [24] = assay: Antimicrobial activity against Klebsiella pneumoniae MTCC 3384
# Klebsiella pneumoniae [25] = assay: Antimicrobial activity against Klebsiella pneumoniae MTCC 3384 at 50 ug/ml after 24 hrs by agar disc diffusion method; conditions: MTCC 3384, 24 h, read-out: DIZ
# Aspergillus niger [26] = assay: Antimicrobial activity against Aspergillus niger MTCC 281 at 100 ug/ml after 24 hrs by agar disc diffusion method; conditions: MTCC 281, 24 h, read-out: DIZ
# [27] = Antioxidant activity against ferric chloride-induced lipid peroxidation using egg lecithin at 10 ug/ml after 1 hr
# Aspergillus flavus [28] = assay: Antimicrobial activity against Aspergillus flavus MTCC 873 at 100 ug/ml after 24 hrs by agar disc diffusion method; conditions: MTCC 873, 24 h, read-out: DIZ
# [29] = Antioxidant activity assessed as reducing power of ferric ion at 100 ug/ml after 20 mins; design: scale not given: the % may be the effect or the level left
# Staphylococcus aureus [30] = assay: Antimicrobial activity against Staphylococcus aureus MTCC 96
# Bacillus cereus [31] = assay: Antimicrobial activity against Bacillus cereus MTCC 8372 at 50 ug/ml after 24 hrs by agar disc diffusion method; conditions: MTCC 8372, 24 h, read-out: DIZ
# [32] = Antioxidant activity against ferric chloride-induced lipid peroxidation using egg lecithin at 0.75 ug/ml after 1 hr
# Aspergillus niger [33] = assay: Antimicrobial activity against Aspergillus niger MTCC 281
# Staphylococcus aureus [34] = assay: Antimicrobial activity against Staphylococcus aureus MTCC 96 at 100 ug/ml after 24 hrs by agar disc diffusion method; conditions: MTCC 96, 24 h, read-out: DIZ
# Escherichia coli [35] = assay: Antimicrobial activity against Escherichia coli MTCC 724 at 100 ug/ml after 24 hrs by agar disc diffusion method; conditions: MTCC 724, 24 h, read-out: DIZ
# Shigella flexneri [36] = assay: Antimicrobial activity against Shigella flexneri MTCC 1457 at 50 ug/ml after 24 hrs by agar disc diffusion method; conditions: MTCC 1457, 24 h, read-out: DIZ
# [37] = Antioxidant activity against ferric chloride-induced lipid peroxidation using egg lecithin at 5 ug/ml after 1 hr
# [38] = Antioxidant activity against ferric chloride-induced lipid peroxidation using egg lecithin at 2.5 ug/ml after 1 hr
# [39] = Antioxidant activity against ferric chloride-induced lipid peroxidation using egg lecithin at 100 ug/ml after 1 hr
# [40] = Antioxidant activity assessed as reducing power of ferric ion at 10 ug/ml after 20 mins; design: scale not given: the % may be the effect or the level left
Compound,MIC (Shigella flexneri [1]),MIC (Escherichia coli [5]),MIC (Aspergillus flavus [8]),MIC (Bacillus cereus [9]),MIC (Klebsiella pneumoniae [24]),zone of inhibition at 100 µg/mL (Shigella flexneri [2]),Activity [3],zone of inhibition at 50 µg/mL (Aspergillus niger [4]),inhibition [6],Activity [7],zone of inhibition at 50 µg/mL (Escherichia coli [12]),zone of inhibition at 50 µg/mL (Aspergillus flavus [14]),zone of inhibition at 100 µg/mL (Klebsiella pneumoniae [15]),Activity [17],inhibition [20],Activity [21],zone of inhibition at 100 µg/mL (Bacillus cereus [22]),zone of inhibition at 50 µg/mL (Staphylococcus aureus [23]),inhibition [27],inhibition [39],also measured
VITAMIN E,,,,,,,,,,,,,,,62%,,,,47%,92%,inhibition [10]: 1.2%; inhibition [11]: 6%; inhibition [13]: 2%; inhibition [16]: 4.1%; inhibition [18]: 3.4%; inhibition [19]: 9.3%; inhibition [32]: 7.7%; inhibition [37]: 26%; inhibition [38]: 17%
Clc1ccc(C2=NN(c3ccccc3)C(c3noc(-c4ccccc4)n3)C2)cc1 (stereo not given),25 µg/mL,45 µg/mL,10 µg/mL,30 µg/mL,25 µg/mL,8 mm,23%,9 mm,60%,26%,4 mm,12 mm,8 mm,40%,44%,68%,8 mm,3 mm,31%,71%,zone of inhibition at 50 µg/mL (Klebsiella pneumoniae [25]): 6 mm; zone of inhibition at 100 µg/mL (Aspergillus niger [26]): 18 mm; zone of inhibition at 100 µg/mL (Aspergillus flavus [28]): 18 mm; Activity [29]: 62%; MIC (Staphylococcus aureus [30]): 50 µg/mL; zone of inhibition at 50 µg/mL (Bacillus cereus [31]): 5 mm; MIC (Aspergillus niger [33]): 15 µg/mL; zone of inhibition at 100 µg/mL (Staphylococcus aureus [34]): 11 mm; zone of inhibition at 100 µg/mL (Escherichia coli [35]): 10 mm; zone of inhibition at 50 µg/mL (Shigella flexneri [36]): 6 mm; Activity [40]: 13%
COc1ccc(C2=NN(c3ccccc3)C(c3noc(-c4ccc(Cl)cc4)n3)C2)cc1 (stereo not given),25 µg/mL,25 µg/mL,10 µg/mL,40 µg/mL,25 µg/mL,8 mm,22%,12 mm,57.5%,23%,8 mm,12 mm,10 mm,52%,48%,72%,13 mm,5 mm,34%,70%,zone of inhibition at 50 µg/mL (Klebsiella pneumoniae [25]): 7 mm; zone of inhibition at 100 µg/mL (Aspergillus niger [26]): 20 mm; zone of inhibition at 100 µg/mL (Aspergillus flavus [28]): 18 mm; Activity [29]: 58%; MIC (Staphylococcus aureus [30]): 30 µg/mL; zone of inhibition at 50 µg/mL (Bacillus cereus [31]): 4 mm; MIC (Aspergillus niger [33]): 10 µg/mL; zone of inhibition at 100 µg/mL (Staphylococcus aureus [34]): 12 mm; zone of inhibition at 100 µg/mL (Escherichia coli [35]): 10 mm; zone of inhibition at 50 µg/mL (Shigella flexneri [36]): 8 mm; Activity [40]: 12%

# The remaining compounds from weak to strong by MIC (Shigella flexneri [1]), led by results:
MIC (Shigella flexneri [1]),MIC (Escherichia coli [5]),MIC (Aspergillus flavus [8]),MIC (Bacillus cereus [9]),MIC (Klebsiella pneumoniae [24]),Compound,zone of inhibition at 100 µg/mL (Shigella flexneri [2]),Activity [3],zone of inhibition at 50 µg/mL (Aspergillus niger [4]),inhibition [6],Activity [7],zone of inhibition at 50 µg/mL (Escherichia coli [12]),zone of inhibition at 50 µg/mL (Aspergillus flavus [14]),zone of inhibition at 100 µg/mL (Klebsiella pneumoniae [15]),Activity [17],inhibition [20],Activity [21],zone of inhibition at 100 µg/mL (Bacillus cereus [22]),zone of inhibition at 50 µg/mL (Staphylococcus aureus [23]),inhibition [27],inhibition [39],also measured
40 µg/mL,50 µg/mL,30 µg/mL,50 µg/mL,40 µg/mL,N/C(=N\O)C1CC(c2ccccc2)=NN1c1ccccc1 (stereo not given),10 mm,16%,2 mm,61.7%,12%,2 mm,4 mm,8 mm,28%,15%,51%,3 mm,3 mm,32%,14%,inhibition [10]: 0.7%; inhibition [11]: 8.2%; inhibition [13]: 1.3%; inhibition [16]: 8%; inhibition [18]: 8.4%; inhibition [19]: 9.5%; zone of inhibition at 50 µg/mL (Klebsiella pneumoniae [25]): 2 mm; zone of inhibition at 100 µg/mL (Aspergillus niger [26]): 3 mm; zone of inhibition at 100 µg/mL (Aspergillus flavus [28]): 4 mm; Activity [29]: 56%; MIC (Staphylococcus aureus [30]): 40 µg/mL; zone of inhibition at 50 µg/mL (Bacillus cereus [31]): 2 mm; inhibition [32]: 8.5%; MIC (Aspergillus niger [33]): 50 µg/mL; zone of inhibition at 100 µg/mL (Staphylococcus aureus [34]): 6 mm; zone of inhibition at 100 µg/mL (Escherichia coli [35]): 7 mm; zone of inhibition at 50 µg/mL (Shigella flexneri [36]): 3 mm; inhibition [37]: 21%; inhibition [38]: 14.7%; Activity [40]: 8%
20 µg/mL,50 µg/mL,15 µg/mL,30 µg/mL,30 µg/mL,c1ccc(C2=NN(c3ccccc3)C(c3noc(-c4ccccc4)n3)C2)cc1 (stereo not given),8 mm,18%,10 mm,23.3%,16%,3 mm,9 mm,6 mm,28%,40%,39%,8 mm,2 mm,21%,57%,zone of inhibition at 50 µg/mL (Klebsiella pneumoniae [25]): 4 mm; zone of inhibition at 100 µg/mL (Aspergillus niger [26]): 14 mm; zone of inhibition at 100 µg/mL (Aspergillus flavus [28]): 12 mm; Activity [29]: 58%; MIC (Staphylococcus aureus [30]): 50 µg/mL; zone of inhibition at 50 µg/mL (Bacillus cereus [31]): 4 mm; MIC (Aspergillus niger [33]): 15 µg/mL; zone of inhibition at 100 µg/mL (Staphylococcus aureus [34]): 8 mm; zone of inhibition at 100 µg/mL (Escherichia coli [35]): 8 mm; zone of inhibition at 50 µg/mL (Shigella flexneri [36]): 4 mm; Activity [40]: 6%

# Source: ChEMBL document CHEMBL2406981, “Novel pyrazoline amidoxime and their 1,2,4-oxadiazole analogues: synthesis and pharmacological screening” (Bioorg Med Chem Lett, 2013)
